Measurements from patent US20260285880A1, “SUBSTITUTED DIHYDROTHIENOPYRIMIDINE COMPOUND, PREPARATION METHOD THEREFOR, AND USE THEREOF” (SHANGHAI YIDI BIOTECHNOLOGY CO., LTD., priority 2023, published 2026).

Tests used:
[1] = target: PDE4B2 (Homo sapiens, UniProt Q07343); details: read-out: PDE4B2 IC50; enzyme assay
[2] = target: Flpin-293-PDE4B2 cells (Homo sapiens, UniProt Q07343); test: cell-based; details: for inhibition at 0.001 µM: read-out: Cell Inhibition % @1 nM, 1 nM, Flpin-293-PDE4B2 cells; for inhibition at 0.01 µM: read-out: Cell Inhibition % @10 nM, 10 nM, Flpin-293-PDE4B2 cells; for inhibition at 0.1 µM: read-out: Cell Inhibition % @100 nM, 100 nM, Flpin-293-PDE4B2 cells
Chain of Flpin-293-PDE4B2 cells (Q07343 1-564 isoform Q07343-2): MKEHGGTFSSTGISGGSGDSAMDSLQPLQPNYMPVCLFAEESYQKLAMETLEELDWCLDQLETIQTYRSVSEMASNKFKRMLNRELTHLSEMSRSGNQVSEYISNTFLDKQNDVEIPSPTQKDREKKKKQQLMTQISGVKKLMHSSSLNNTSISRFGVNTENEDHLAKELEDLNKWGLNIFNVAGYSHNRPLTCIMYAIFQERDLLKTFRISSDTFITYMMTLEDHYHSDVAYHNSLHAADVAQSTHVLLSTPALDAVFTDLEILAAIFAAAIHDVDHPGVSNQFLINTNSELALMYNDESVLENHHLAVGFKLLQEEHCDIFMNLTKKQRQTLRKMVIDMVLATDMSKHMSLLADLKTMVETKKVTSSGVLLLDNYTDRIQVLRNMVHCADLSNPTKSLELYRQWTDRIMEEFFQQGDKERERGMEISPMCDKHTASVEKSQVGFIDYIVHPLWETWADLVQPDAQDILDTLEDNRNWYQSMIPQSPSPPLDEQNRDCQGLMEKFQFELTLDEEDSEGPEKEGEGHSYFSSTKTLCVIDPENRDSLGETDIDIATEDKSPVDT

[3] = target: PDE4D2 (Homo sapiens, UniProt Q08499); test: PDE4D2 enzyme experiment (AMP-Glo); details: read-out: PDE4D2 IC50 Binding; enzyme assay
Chain of PDE4D2 (Q08499 303-809 limits assumed): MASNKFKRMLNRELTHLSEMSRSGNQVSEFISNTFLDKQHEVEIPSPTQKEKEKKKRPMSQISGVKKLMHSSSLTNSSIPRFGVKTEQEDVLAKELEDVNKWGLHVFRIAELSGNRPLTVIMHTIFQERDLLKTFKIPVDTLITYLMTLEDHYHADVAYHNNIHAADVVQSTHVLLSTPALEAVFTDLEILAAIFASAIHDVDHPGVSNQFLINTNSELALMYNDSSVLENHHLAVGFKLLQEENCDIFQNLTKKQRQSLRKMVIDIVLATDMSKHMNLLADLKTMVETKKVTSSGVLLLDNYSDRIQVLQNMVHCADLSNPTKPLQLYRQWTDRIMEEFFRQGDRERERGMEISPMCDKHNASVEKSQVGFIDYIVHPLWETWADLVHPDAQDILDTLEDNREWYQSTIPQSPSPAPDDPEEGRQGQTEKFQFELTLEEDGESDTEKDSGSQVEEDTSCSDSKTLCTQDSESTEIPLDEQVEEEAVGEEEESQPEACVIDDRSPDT

Chain of PDE4B2 (Q07343 1-564 isoform Q07343-2, species assumed): as the sequence (Q07343 1-564 isoform Q07343-2) above

Row | IC50 [1] [nM] | inhibition at 0.001 µM [2] [%] | inhibition at 0.01 µM [2] [%] | inhibition at 0.1 µM [2] [%] | IC50 [3] [nM] | Structure (SMILES)
1 | 0.45 | 25.3 | 93.8 | 101 | 0.116 | O=S1(=O)CCC(Nc2nc(N3CCc4cc(N5CCCC5)ccc4C3)nc3c2[S+]([O-])CC3)CC1 (centres unmarked) [Compound 187]
2 | 0.837 | 6.79 | 34.8 | 94.4 | 2.27 | Cn1cc(CNc2nc(N3CCc4cc(Cl)ccc4C3)nc3c2[S+]([O-])CC3)cn1 (centres unmarked) [Compound 142]
3 | 0.0693 | 23.7 | 89.5 | 100 | 0.244 | COC(=O)N1CC[C@H](Nc2nc(N3CCc4cc(N5CCCC5)ccc4C3)nc3c2[S+]([O-])CC3)C1 (some centres unmarked) [Compound 196]
4 | 0.98 | 8.7 | 42.6 | 97.3 | 2.92 | C[C@@H]1c2ccc(Br)cc2CCN1c1nc2c(c(NC3(CO)CCC3)n1)[S+]([O-])CC2 (some centres unmarked) [Compound 124]
5 | 0.607 | 6.1 | 51.5 | 97.8 | 0.716 | C[C@H]1CCN1c1ccc2c(c1)CCN(c1nc3c(c(NC4(CO)CCC4)n1)[S+]([O-])CC3)C2 (some centres unmarked) [Compound 176]
6 | 0.951 | 19.8 | 77.4 | 100 | 1.64 | CN(C)c1ccc2c(c1)CCN(c1nc3c(c(NC4(CO)CCC4)n1)[S+]([O-])CC3)C2 (centres unmarked) [Compound 126]
7 | 0.417 | 4.88 | 38.2 | 96 | 1.27 | COc1nn(C)cc1Nc1nc(N2CCc3cc(N4CCCC4)ccc3C2)nc2c1[S+]([O-])CC2 (centres unmarked) [Compound 193]
8 | 0.117 | 14.7 | 74.4 | 99.9 | 0.119 | C[C@H]1c2ccc(N3CCCC3)cc2CCN1c1nc2c(c(NC3(CO)COC3)n1)[S+]([O-])CC2 (some centres unmarked) [Compound 200]
9 | 0.608 | 18.1 | 67.4 | 97.7 | 1.79 | [O-][S+]1CCc2nc(N3CCc4cc(N5CCCC5)ccc4C3)nc(NCCO)c21 (centres unmarked) [Compound 198]
10 | 0.387 | 8.72 | 39.6 | 96.6 | 0.73 | [O-][S+]1CCc2nc(N3CCc4cc(N5CCCC5)ccc4C3)nc(N3CCC[C@H]3CO)c21 (some centres unmarked) [Compound 188]
11 | 0.515 | 10.5 | 33 | 94.2 | 1.55 | C[C@@H]1CCCN1c1ccc2c(c1)CCN(c1nc3c(c(NC4(CO)CCC4)n1)[S+]([O-])CC3)C2 (some centres unmarked) [Compound 133]
12 | 0.729 | 1.97 | 26.7 | 86.9 | 1.29 | CN1CCN(c2ccc3c(c2)CCN(c2nc4c(c(NC5(CO)CCC5)n2)[S+]([O-])CC4)C3)CC1 (centres unmarked) [Compound 170]
13 | 0.502 | 9.95 | 51.5 | 92.2 | 0.46 | CN1CC2CN(c3ccc4c(c3)CCN(c3nc5c(c(NC6(CO)CCC6)n3)[S+]([O-])CC5)C4)CC2C1 (centres unmarked) [Compound 179]
14 | 0.0251 | 75.3 | 100 | 101 | 0.0263 | CN1C[C@@H](Nc2nc(N3CCc4cc(N5CCCC5)ccc4C3)nc3c2[S+]([O-])CC3)CCC1=O (some centres unmarked) [Compound 185]
15 | 0.299 | 6.9 | 59.4 | 98.4 | 0.603 | CC1(O)CCN(c2ccc3c(c2)CCN(c2nc4c(c(NC5(CO)CCC5)n2)[S+]([O-])CC4)C3)C1 (centres unmarked) [Compound 175]
16 | 0.298 | 7.66 | 56.5 | 99.1 | 0.655 | CO[C@H]1CCN(c2ccc3c(c2)CCN(c2nc4c(c(NC5(CO)CCC5)n2)[S+]([O-])CC4)C3)C1 (some centres unmarked) [Compound 151]
17 | 0.138 | 26.5 | 91 | 99.7 | 0.279 | [O-][S+]1CCc2nc(N3CCc4cc(N5CC6COCC6C5)ccc4C3)nc(NC3(CO)CCC3)c21 (centres unmarked) [Compound 154]
18 | 0.245 | 4.25 | 36 | 95.9 | 0.985 | [O-][S+]1CCc2nc(N3CCc4cc(N5CC6CC6C5)ccc4C3)nc(NC3(CO)CCC3)c21 (centres unmarked) [Compound 145]
19 | 0.108 | 6.54 | 46.9 | 98.6 | 0.561 | Cn1cc(Nc2nc(N3CCc4cc(N5CCCC5)ccc4C3)nc3c2[S+]([O-])CC3)cn1 (centres unmarked) [Compound 168]

Row | IC50 [1] [nM] | inhibition at 0.001 µM [2] [%] | inhibition at 0.01 µM [2] [%] | inhibition at 0.1 µM [2] [%] | IC50 [3] [nM] | Structure (SMILES)
20 | 0.297 | 11.8 | 57.9 | 100 | 0.59 | [O-][S+]1CCc2nc(N3CCc4cc(N5CC[C@@H](O)C5)ccc4C3)nc(NC3(CO)CCC3)c21 (some centres unmarked) [Compound 130]
21 | 0.968 | 2.85 | 21.8 | 90.6 | 1.98 | [O-][S+]1CCc2nc(N3CCc4cc(Cl)ccc4[C@H]3C3CC3)nc(NC3(CO)CCC3)c21 (some centres unmarked) [Compound 125]
22 | 13.5 | 0.4 | 10 | 29.4 | 48.2 | C[C@@H]1Cc2cc(Cl)ccc2CN1c1nc2c(c(NC3(CO)CCC3)n1)[S+]([O-])CC2 (some centres unmarked) [Compound 121]
23 | 0.227 | 11.7 | 50.4 | 98.2 | 0.75 | COc1nn(C)cc1Nc1nc(N2CCc3cc(N4CCCC4)ccc3[C@@H]2C)nc2c1[S+]([O-])CC2 (some centres unmarked) [Compound 216]
24 | 0.098 | 19.2 | 86.8 | 101 | 0.24 | C[C@H]1CCCN1c1ccc2c(c1)CCN(c1nc3c(c(NC4(CO)CCC4)n1)[S+]([O-])CC3)C2 (some centres unmarked) [Compound 134]
25 | 0.67 | 3.1 | 37.3 | 96.3 | 0.824 | [O-][S+]1CCc2nc(N3CCc4cc(N5CC6C(C5)C6(F)F)ccc4C3)nc(NC3(CO)CCC3)c21 (centres unmarked) [Compound 161]
26 | 0.224 | 16.8 | 73.4 | 99.6 | 0.389 | N#CC1CCN(c2ccc3c(c2)CCN(c2nc4c(c(NC5(CO)CCC5)n2)[S+]([O-])CC4)C3)C1 (centres unmarked) [Compound 159]
27 | 0.838 | 5.4 | 49.9 | 96.8 | 2.04 | C[C@H]1Cc2cc(Cl)ccc2CN1c1nc2c(c(NC3(CO)CCC3)n1)[S+]([O-])CC2 (some centres unmarked) [Compound 122]
28 | 0.43 | 5.99 | 38.3 | 96 | 1.08 | [O-][S+]1CCc2nc(N3CCc4cc(N5CCC(F)C5)ccc4C3)nc(NC3(CO)CCC3)c21 (centres unmarked) [Compound 149]
29 | 0.508 | 7.25 | 53.3 | 98.6 | 0.502 | [O-][S+]1CCc2nc(N3CCc4cc(N5CC6CC5C6)ccc4C3)nc(NC3(CO)CCC3)c21 (centres unmarked) [Compound 177]
30 | 0.426 | 16.1 | 66 | 99.2 | 0.748 | CO[C@@H]1CCN(c2ccc3c(c2)CCN(c2nc4c(c(NC5(CO)CCC5)n2)[S+]([O-])CC4)C3)C1 (some centres unmarked) [Compound 152]
31 | 0.457 | 9.23 | 61.6 | 98.2 | 0.453 | [O-][S+]1CCc2nc(N3CCc4cc(N5CCC6(CC5)COC6)ccc4C3)nc(NC3(CO)CCC3)c21 (centres unmarked) [Compound 166]
32 | 0.44 | 7.35 | 51.4 | 98.6 | 0.697 | [O-][S+]1CCc2nc(N3CCc4cc(N5CCOCC5)ccc4C3)nc(NC3(CO)CCC3)c21 (centres unmarked) [Compound 144]
33 | 0.147 | 16.6 | 76 | 98.7 | 0.333 | [O-][S+]1CCc2nc(N3CCc4cc(N5CC[C@@H](CO)C5)ccc4C3)nc(NC3(CO)CCC3)c21 (some centres unmarked) [Compound 131]
34 | 0.182 | 10.2 | 76.8 | 99.9 | 0.52 | [O-][S+]1CCc2nc(N3CCc4cc(N5C[C@H]6C[C@@H]5CO6)ccc4C3)nc(NC3(CO)CCC3)c21 (some centres unmarked) [Compound 153]
35 | 0.14 | 15.4 | 60.3 | 99.2 | 0.45 | [O-][S+]1CCc2nc(N3CCc4cc(N5CCCC5)ccc4C3)nc(Nc3cnn(C4COC4)c3)c21 (centres unmarked) [Compound 192]
36 | 0.0407 | 48.1 | 98.3 | 101 | 0.0825 | CN1CC(Nc2nc(N3CCc4cc(Cl)ccc4C3)nc3c2[S+]([O-])CC3)CCC1=O (centres unmarked) [Compound 136]
37 | 0.945 | 3.24 | 34.6 | 97.5 | 1.25 | C[C@H]1c2ccc(N3CCCC3)cc2CCN1c1nc2c(c(NC3(CO)CCOCC3)n1)[S+]([O-])CC2 (some centres unmarked) [Compound 212]
